In US10363253B2, “Combination products for the treatment of RSV” (priority 2016, dated 2019):
Several values for one entry are separate records, joined by “and”; a condition that tells them apart may be missing. Equal entries are not always repeated. Where two headings read alike, the source gives them in different places.

Test system: rgRSV224, an engineered RSV strain that encodes for eGFP
Assay type: cell-based
Experimental: To evaluate their combined antiviral effect against RSV, in vitro combination studies were performed with JNJ-53718678 (“compound A”) and various compounds with different mechanisms-of-action (“compound B”). In short, 9 concentrations of Compound A were combined with 6 or 7 concentrations of a certain compound B. HeLa cells were infected with rgRSV224, an engineered RSV strain that encodes for eGFP (Hallak L K, Spillmann D, Collins P L, Peeples M E. Glycosaminoglycan sulfation requirements for respiratory syncytial virus infection; Journal of Virology (2000), 74(22), 10508-13), in the presence of various concentrations of compound A and compound B individually or in combination.
Compound stock solutions were 5 mM in 100% DMSO, with following exceptions: ribavirin, 20 mM; A 60444, 10 mM; CR9501, 141 μM in PBS; palivizumab, 156 μM in PBS; MDT 637, 100 μM in methanol. First, the compounds were serially diluted in 3-fold dilution series in DMSO; CR9501 and palivizumab were serially diluted in cell culture medium, and MDT 637 in methanol. The concentration series were diluted 100-fold in cell culture medium to achieve a combination matrix. 10 μL of these compound solutions were transferred to black 384-well clear-bottom tissue-culture treated plates. Next, 10 μL of a […] HeLa cell suspension was added to achieve 3000 cells per well. Finally, 10 μL of diluted virus stock was added to achieve an MOI of 1. The final DMSO concentration of all wells was 0.5% DMSO, except for the MDT 637 experiment where it was 0.25% DMSO+0.25% methanol. Each combination of compound concentrations was tested in 4 replicates on 3 separate plates, resulting in a total of 12 replicates. The plates were incubated for 3 days at 37° C. in a humidified atmosphere at 5% CO2. The GFP signal was measured with PerkinElmer EnVision apparatus using a 405 nm filter.
The method of Harbron (Statistics in Medicine, 2010, DOI:10.1002/sim3916) was used to assess synergy. Using the Loewe definition, two compounds are characterized as being additive, synergistic or antagonistic by:
where d1 and d2 represent the doses of the two compounds that in combination produce an effect y, and Dy,1 and Dy,2 represent the doses of the two compounds that produce the same effect, y, when administered as a monotherapy. A 3PL model (3-parameter log-logistic model) was used for the monotherapy dose-response data, where the baseline response was fixed at one.
Following Harbron's approach, the following models were fitted to the data: • “Additive”: assuming no interaction between the two compounds • “Uniform”: assuming a constant interaction index τ across all dose combinations • “Linear A”: assuming the interaction index linearly depends on the log 10 dose of compound A: z=τ1+τ2 log 10(dA) • “Separate A”: assuming the interaction index τ takes a separate value for each dose of compound A The latter two models were also considered for compound B: • “Linear B”: assuming the interaction index linearly τ depends on the log 10 dose of compound B: τ=τ1+τ2 log 10(dB) • “Separate B”: assuming the interaction index τ takes a separate value for each dose of compound B

With `O=C(Nc1ccccc1F)N[C@H]1N=C(c2ccccc2)c2ccccc2NC1=O` [Compound A-60444, (S)-1-(2-fluorophenyl)-3-(2-oxo-5-phenyl-2,3-dihydro-1H-benzo[e][1,4]diazepin-3-yl) urea, reference compound] the “normalized GFP signal” value (A = 0, B (A-60444) = 34) was 1.00, the “normalized GFP signal” value (A = 0, B (A-60444) = 103) was 1.00 and the “normalized GFP signal” value (A = 0, B (A-60444) = 309) was 0.96. The “normalized GFP signal” value (A = 0, B (A-60444) = 926) was 0.93, the “normalized GFP signal” value (A = 0, B (A-60444) = 2778) was 0.93 and the “normalized GFP signal” value (A = 0, B (A-60444) = 8333) was 0.75. The “normalized GFP signal” value (A = 0, B (A-60444) = 25000) was 0.39.

For `Cc1nnnn1/N=C/c1ccc(O)c(C(c2ccc(O)cc2)c2cc(/C=N/n3nnnc3C)ccc2O)c1` [MDT-637, reference compound], the “normalized GFP signal” value was 0.99 and 0.95, the “normalized GFP signal” value (A = 0, B (MDT-637) = 0.038) was 1.01 and the “normalized GFP signal” value (A = 0, B (MDT-637) = 1) was 0.93. The “normalized GFP signal” value (A = 0, B (MDT-637) = 3.1) was 0.75, the “normalized GFP signal” value (A = 0, B (MDT-637) = 9.3) was 0.14 and the “normalized GFP signal” value (A = 0, B (MDT-637) = 28) was 0.01.

`Cc1cnc(N2CC3(CCOCC3)C2)c(C(=O)Nc2ccc(C(=O)N3CCc4cc(C(=O)Nc5c(C)cccc5F)sc4-c4ccccc43)cc2)c1` [pulmocide compound, N-(2-fluoro-6-methylphenyl)-6-(4-(5-methyl-2-(7-oxa-2-azaspiro[3.5]nonan-2-yl)nicotinamido)benzoyl)-5,6-dihydro-4H-benzo[b]thieno[2,3-d]azepine-2-carboxamide, reference compound] was tested, and the “normalized GFP signal” value was 1.04, the “normalized GFP signal” value (A = 0, B (pulmocide compound) = 0.058) was 0.99 and the “normalized GFP signal” value (A = 0, B (pulmocide compound) = 0.17) was 0.99. For the same compound, the “normalized GFP signal” value (A = 0, B (pulmocide compound) = 1.6) was 0.91, the “normalized GFP signal” value (A = 0, B (pulmocide compound) = 4.7) was 0.20 and the “normalized GFP signal” value (A = 0, B (pulmocide compound) = 14) was 0.02. The “normalized GFP signal” value (A = 0, B (pulmocide compound) = 42) was 0.02.

With `NC(=O)c1ncn([C@@H]2O[C@H](CO)[C@@H](O)[C@H]2O)n1` [ribavirin, 1-β-D-ribofuranosyl-1H-1,2,4-triazole-3-carboxamide, reference compound] the “normalized GFP signal” value (A = 0, B (ribavirin) = 69) was 1.00, the “normalized GFP signal” value (A = 0, B (ribavirin) = 206) was 0.98 and the “normalized GFP signal” value (A = 0, B (ribavirin) = 617) was 0.98. The “normalized GFP signal” value (A = 0, B (ribavirin) = 1852) was 0.97, the “normalized GFP signal” value (A = 0, B (ribavirin) = 5556) was 0.94 and the “normalized GFP signal” value (A = 0, B (ribavirin) = 16667) was 0.83. For the same compound, the “normalized GFP signal” value (A = 0, B (ribavirin) = 50000) was 0.13.

With “palivizumab: monoclonal antibody CAS 188039-54-5” the “normalized GFP signal” value (A = 0, B (palivizumab) = 0.0061) was 1.05, the “normalized GFP signal” value (A = 0, B (palivizumab) = 0.018) was 1.01 and the “normalized GFP signal” value (A = 0, B (palivizumab) = 0.055) was 0.97. The “normalized GFP signal” value (A = 0, B (palivizumab) = 0.165) was 1.01, the “normalized GFP signal” value (A = 0, B (palivizumab) = 0.494) was 0.89 and the “normalized GFP signal” value (A = 0, B (palivizumab) = 1.482) was 0.33. For the same compound, the “normalized GFP signal” value (A = 0, B (palivizumab) = 4.447) was 0.06.
